Measured values published in the supplement of paper PMC10307832.

Compound: CCN(CCO)CCCC(C)Nc1ccnc2cc(Cl)ccc12 [Hydroxychloroquine] + Cc1cc(Nc2cc(N3CCN(C)CC3)nc(Sc3ccc(NC(=O)C4CC4)cc3)n2)n[nH]1 [Tozasertib] (partner 0.1 µM)
Assay: relative viability (nuclei count vs DMSO), 5 days (fraction); higher = more cells survive
Method in brief: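 Relative viability was taken as the ratio of nuclei in treated wells to nuclei in vehicle wells. Lung cancer cell lines in 1536-well plates received compounds by pin tool one day after seeding, either one drug alone or a fixed anchor-drug dose plus five library-drug doses (not always all listed) in √10 steps. Nuclei were counted on 4× images after 5 days of treatment, and values are medians of duplicate plates.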

Row | Cell Line | relative viability (first compound 0.5 µM) | relative viability (first compound 1.581 µM) | relative viability (first compound 5 µM) | relative viability (first compound 15.81 µM) | relative viability (first compound 50 µM)
1 | 201T | 0.941 | 0.954 | 0.951 | 0.966 | 1.08
2 | A-427 | 0.207 | 0.172 | 0.2 | 0.207 | 0.232
3 | ABC-1 | 0.162 | 0.136 | 0.166 | 0.172 | 0.165
4 | BEN | 0.606 | 0.465 | 0.551 | 0.501 | 0.622
5 | CAL-12T | 0.342 | 0.276 | 0.336 | 0.296 | 0.378
6 | COR-L23 | 0.191 | 0.218 | 0.267 | 0.209 | 0.225
7 | COR-L 105 | 0.353 | 0.349 | 0.376 | 0.376 | 0.333
8 | ChaGo-K-1 | 0.224 | 0.18 | 0.222 | 0.228 | 0.233
9 | EKVX | 0.401 | 0.316 | 0.38 | 0.374 | 0.494
10 | EMC-BAC-2 | 0.307 | 0.289 | 0.31 | 0.286 | 0.258
11 | EPLC-272H | 0.262 | 0.152 | 0.26 | 0.257 | 0.287
12 | H3255 | 0.687 | 0.558 | 0.682 | 0.796 | 0.677
13 | HARA | 0.221 | 0.0946 | 0.0888 | 0.11 | 0.099
14 | HCC-15 | 0.392 | 0.399 | 0.412 | 0.321 | 0.441
15 | HCC-44 | 1.18 | 0.937 | 0.895 | 0.934 | 1.3
16 | HCC-78 | 0.438 | 0.459 | 0.478 | 0.305 | 0.466
17 | HCC-366 | 0.109 | 0.132 | 0.138 | 0.0907 | 0.144
18 | HCC-827 | 0.442 | 0.442 | 0.513 | 0.467 | 0.456

Row | Cell Line | relative viability (first compound 0.5 µM) | relative viability (first compound 1.581 µM) | relative viability (first compound 5 µM) | relative viability (first compound 15.81 µM) | relative viability (first compound 50 µM)
19 | HOP-62 | 0.365 | 0.316 | 0.38 | 0.43 | 0.413
20 | LC-2-ad | 0.447 | 0.478 | 0.415 | 0.463 | 0.455
21 | LCLC-97TM1 | 0.282 | 0.254 | 0.229 | 0.509 | 0.26
22 | LCLC-103H | 0.433 | 0.404 | 0.541 | 0.507 | 0.56
23 | LK-2 | 0.176 | 0.167 |  | 0.176 | 0.154
24 | LOU-NH91 | 0.651 | 0.6 | 0.687 | 0.692 | 0.723
25 | LU99A | 0.243 | 0.229 | 0.281 | 0.256 | 0.284
26 | LXF-289 | 0.172 | 0.17 | 0.2 | 0.176 | 0.193
27 | NCI-H23 | 0.56 | 0.337 | 0.41 | 0.65 | 0.424
28 | NCI-H322M | 0.506 | 0.478 | 0.484 | 0.547 | 0.49
29 | NCI-H358 | 0.097 | 0.096 | 0.115 | 0.108 | 0.0849
30 | NCI-H441 | 0.759 | 0.578 | 0.61 | 0.879 | 0.591
31 | NCI-H460 | 0.515 | 0.4 | 0.377 | 0.413 | 0.516
32 | NCI-H520 | 0.45 | 0.39 | 0.442 | 0.465 | 0.41
33 | NCI-H522 | 0.524 | 0.619 | 0.607 | 0.632 | 0.525
34 | NCI-H596 | 1.16 | 0.994 | 0.858 | 0.865 | 0.987
35 | NCI-H647 | 0.263 | 0.357 | 0.278 | 0.346 | 0.272
